Measured values reported in patent publication US11479587B2, “Cationic intrinsically disordered antimicrobial peptides” (priority 2016, dated 2022).
Marks after values point to notes of the source that are not given here. No end group written: not given here. *: point of attachment. Palmitoyl = CCCCCCCCCCCCCCCC(=O)*; Myristoyl = CCCCCCCCCCCCCC(=O)*

Assays:
S. aureus ATCC 6538 = assay: CFU-assay, S. aureus-cidal activity; type: cell-based, Staphylococcus aureus
Procedure: Thus, within the present invention, the antimicrobial activity is generally measured in nutrient deficient 10 mM sodium phosphate buffer pH 5.5, containing 0.25% glucose, using the CFU-assay according to Steinberg and Lehrer, 1997 (supra), unless otherwise indicated. The CFU-assay allows determination of the minimal bactericidal concentration (MBC, e.g., MBC90 and MBC100; i.e. the concentration of compound required to achieve a specified reduction in bacterial cell number (microbial death or killing)).
Various peptides corresponding to repeat domains of hornerin (HR 1-11: HRNR 2606-2628; HR 1-17: HRNR 2656-2684 and HR 1-18: HRNR 2656-2677) were tested for P. aeruginosa ATCC 10145-cidal activity in 10 mM Na-phosphate buffer pH 5.5, containing 0.25% glucose by counting the numbers of colonies of surviving bacteria at serial, twofold dilutions from 300 μg/ml down to 19 ng/ml of each peptide (CFU-assay; Steinberg and Lehrer, 1997, Methods Mol. Biol. 78, 169-186).
Staphylococcus aureus is a major skin pathogen, which causes skin infections, in particular in atopic dermatitis. The sensitivity of S. aureus ATCC 6538 towards several CIDAMPs was assessed using the CFU-assay as above (see Example 1). HR 1-18, which lacks S. aureus.-bactericidal activity, is converted in a S. aureus-cidal peptide, when all His are replaced by Arg (HR 1-18 4H-4R; see Table 13 and FIG. 9). […] HR 1-18 4H-4R is rich in Ser and Arg and contains a single Leu residue. When this single Leu was replaced by Gly in S. aureus-cidal HR 1-18 4H-4R (forming HR 1-18 4H-4R/L-G), S. aureus-cidal activity was abolished at both pH 7.0 and pH 5.5 (see Table 13 and FIG. 9).

P. aeruginosa ATCC 10145 = assay: CFU-assay, P. aeruginosa-cidal activity; type: cell-based, Pseudomonas aeruginosa
[1] = pH 5.5, 0.25% glucose, listed as HR 1-18 G+H

Molecule | MBC90 (S. aureus ATCC 6538; pH 5.5, 0.25% glucose) [µg/mL] | MBC100 (S. aureus ATCC 6538; pH 5.5, 0.25% glucose) [µg/mL] | MBC90 (P. aeruginosa ATCC 10145; pH 5.5, 0.25% glucose) | MBC100 (P. aeruginosa ATCC 10145; pH 5.5, 0.25% glucose) | also measured
Pal-CGQHGATSSGQSSSHGQHGSGSSQSSGYGR (C(Palmitoyl)GQHGATSSGQSSSHGQHGSGSSQSSGYGR) [S-Pal-HRNR1089-1117] | >150 | >150 | – | – | –
GQHGSSSGHSSTHGQHGSTSGQSSSC-Pal* (GQHGSSSGHSSTHGQHGSTSGQSSSC(Pal)-NH2) [S-Pal-HRNR598-623] | 2.35 | >150 | – | – | –
SRRSSSLSRSSSRSSRSSSSSR (Modified peptide derived from human hornerin (HR 1-18 4H-4R/9G-9S)) | 150 | >300 | – | – | MBC90 (P. aeruginosa ATCC 10145; pH 5.0, 0.25% glucose): 0.15 µg/mL; MBC100 (P. aeruginosa ATCC 10145; pH 5.0, 0.25% glucose): 1.18 µg/mL; MBC90 (S. aureus ATCC 6538; pH 7.2, 0.25% glucose): 75 µg/mL; MBC100 (S. aureus ATCC 6538; pH 7.2, 0.25% glucose): >300 µg/mL
Myr-GRRGSGLGRSSSRGQRGSGSGR (Myristoyl-GRRGSGLGRSSSRGQRGSGSGR) [Myr-HR 1-18 HR] | – | – | – | – | MBC90 (S. aureus ATCC 6538; pH 7.3, 1% TSB): 18.75 µg/mL; MBC100 (S. aureus ATCC 6538; pH 7.3, 1% TSB): 75 µg/mL
GRHGSGSGQSSGFGHHESSSWQSSGC-Pal* (GRHGSGSGQSSGFGHHESSSWQSSGC(Palmitoyl)-NH2) [S-Pal-HRNR1389-1414] | 1.18 | 18.8 | – | – | –
GRRGSGGGRSSSRGGRGSGSGR (Modified peptide derived from human hornerin (HR 1-18 4H-4R/L-G)) | >300 | >300 | – | – | MBC90 (P. aeruginosa ATCC 10145; pH 5.0, 0.25% glucose): 0.038 µg/mL; MBC100 (P. aeruginosa ATCC 10145; pH 5.0, 0.25% glucose): 0.15 µg/mL; S. aureus-cidal activity (in words) (S. aureus ATCC 6538; pH 7.0 and pH 5.5): abolished
LRHGSGLGHSSSHGQHGSGSGR (Modified peptide derived from human hornerin (HR 1-18 G2656L)) | 300 | >300 | – | – | MBC90 (P. aeruginosa ATCC 10145; pH 5.0, 0.25% glucose): 4.7 µg/mL; MBC100 (P. aeruginosa ATCC 10145; pH 5.0, 0.25% glucose): >300 µg/mL
HTHSGHTHGQARSQHGESESIVHER (Peptide derived from human filaggrin-2 (FLG-2 1742-1766)) [FLG-21742-1766] | – | – | 0.038 µg/mL | 0.15 µg/mL | –
GRHGSGLGHSSSH (Peptide derived from human hornerin (HR 1-37 HRNR 2656-2668)) [HR 1-37 HRNR2656-2668] | – | – | 9.38 µg/mL | >300 µg/mL | –
HGSGSGQSSRGERHGSSSGSSSH (Modified peptide derived from human hornerin (HR 1-11 R1-G R2609G)) | – | – | – | – | MBC90 (P. aeruginosa ATCC 10145; pH 5.5, 1% TSB): >300* μg/ml; MBC100 (P. aeruginosa ATCC 10145; pH 5.5, 1% TSB): >300* μg/ml
GSGSRQSPSYGRQGSGSGR (Modified peptide derived from human hornerin (HR 2-4Q HRNR 1132-1150 H1144Q)) [HR 2-40 HRNR1132-1150 H1144Q] | – | – | – | – | MBC90 (P. aeruginosa ATCC 10145; pH 5.5, 1% TSB): >300 µg/mL; MBC100 (P. aeruginosa ATCC 10145; pH 5.5, 1% TSB): >300 µg/mL
LGHSSSHGQHGSGSGRSSSRGPYESRLGH [HR 1-36 HRNR2663-2690] | – | – | 0.15 µg/mL | 2.35 µg/mL | –
HGSSSGSSSHYGQHGSGSR (Peptide derived from human hornerin (HR 1-4 HRNR 2619-2637)) [HR 1-4 HRNR2619-2637] | – | – | – | – | MBC90 (P. aeruginosa ATCC 10145; pH 5.5, 1% TSB): 150 µg/mL; MBC100 (P. aeruginosa ATCC 10145; pH 5.5, 1% TSB): >300 µg/mL
HR 2-8: CIDAMP tested alone and in 1:1 mixture with HR 1-8 HRNR2658-2677 (GSGSRQSPSYGR; Peptide derived from human hornerin (HR 2-8)) | – | – | – | – | MBC90 (P. aeruginosa ATCC 10145; pH 5.5, 1% TSB): 18.75 µg/mL; MBC100 (P. aeruginosa ATCC 10145; pH 5.5, 1% TSB): >300 µg/mL
GQHGSSSGHSSTHGQHGSASGQSSSC-Pal* (GQHGSSSGHSSTHGQHGSASGQSSSC(Pal)-NH2) [S-Pal-HRNR2004-2029] | 0.59 | – | – | – | –
Pal-SHHRHFRSHQCRRQRSNSCDR (Palmitoyl-SHHRHFRSHQCRRQRSNSCDR; cysteine pairing not given here) [Pal-LCE3C55-75] | 0.15 | 0.59 | – | – | –
RGRGRGRGR (Synthetic cationic intrinsically disordered antimicrobial peptide (GR9)) | – | – | 0.22 µM | >400, μM | MBC99 (P. aeruginosa ATCC 10145; pH 5.5, 0.25% glucose): MBC99: 10.2 μM
SGHSSVFGQHESGSGHSSAYSQHGSGSGHFC-Pal* (SGHSSVFGQHESGSGHSSAYSQHGSGSGHFC(Palmitoyl)-NH2) [S-Pal-HRNR1748-1778] | 0.3 | 9.38 | – | – | MBC100 (S. aureus ATCC 6538; pH 5.5): 2.8 µM; MBC90 (S. aureus ATCC 6538; pH 5.5, 0.25% glucose (text)): 0.09 µM
HGSGLGHSSSHGQHGSGSGR (Peptide derived from human hornerin (HR 1-8 HRNR2658-2677)) | – | – | 4.7 µg/mL | >300 µg/mL | MBC100 (P. aeruginosa ATCC 10145; pH 5.5, 1% TSB): >300 µg/mL
HSQRGSGSRQSPSYGRH (Modified peptide derived from human hornerin (HR 2-16 HRNR1128-1144)) | – | – | – | 37.5 (only at μg/ml | –
RQSPSYGRHGSGSGR (Peptide derived from human hornerin (HR 2-14 HRNR 1136-1150)) [HR 2-14 HRNR1136-1150] | – | – | – | – | MBC90 (P. aeruginosa ATCC 10145; pH 5.5, 1% TSB): 300 µg/mL; MBC100 (P. aeruginosa ATCC 10145; pH 5.5, 1% TSB): >300 µg/mL
GHHGGGGGHGGGHGGHGGGGGH (Modified peptide derived from human hornerin (HR 1-18 G+H)) [HR 1-18 G + H] | – | – | <0.006 µM | 0.09 µM | MBC90 (P. aeruginosa ATCC 10145; pH 5.0, 0.25% glucose): <0.006 µg/mL; MBC100 (P. aeruginosa ATCC 10145; pH 5.0, 0.25% glucose): 0.09 µg/mL; MBC90 (P. aeruginosa ATCC 10145; [1]): < 0.019 µg/mL; MBC100 (P. aeruginosa ATCC 10145; [1]): 0.075 µg/mL; MBC90 (P. aeruginosa ATCC 10145; pH 7.0, 0.25% glucose): >300 µg/mL; MBC100 (P. aeruginosa ATCC 10145; pH 7.0, 0.25% glucose): >300 µg/mL
QGSHHEQSVNRSGHSGSHHSHTTSQGR (Peptide derived from human filaggrin (FLG 528-554)) [FLG528-554] | – | – | 0.15 µg/mL | 0.59 µg/mL | –
GRHGSGSGQSSSYSPYGSGSGWSSSRGPY (Peptide derived from human hornerin (HRNR 2422-2450)) [HRNR2422-2450] | – | – | – | – | MBC100 (P. aeruginosa ATCC 10145; pH 5.5, 1% TSB): >300 µg/mL
Pal-CGQHGATSGQSSSHGQHGSGSSQSSR (C(Palmitoyl)GQHGATSGQSSSHGQHGSGSSQSSR) [S-Pal-HRNR623-648] | 2.35 | >150 | – | – | –
HGSRSGQSSRGERGGSSSGSSSH (Modified peptide derived from human hornerin (HR 1-11 H2-G H2619G)) | – | – | – | – | MBC90 (P. aeruginosa ATCC 10145; pH 5.5, 1% TSB): 75 µg/mL; MBC100 (P. aeruginosa ATCC 10145; pH 5.5, 1% TSB): >300 µg/mL
GHGRQGSGSRQSPSHVRHGSGSGHSSSHGQHGSGSSYSYSRGHYESGSGQTSGFGQHESGSGQSSGY (Peptide derived from human hornerin (HRNR 295-361)) GHGRQGSGSRQSPSHVRHGSGSGHSSSHGQHGSGSSYSYSRGHYESGSGQTSGFGQHESGSGQSSGY | – | – | 0.15 µg/mL | 0.59 µg/mL | –
LGHGQHGSGSGQSPSPSRGRHGSGSGQSSSYGPYRSGSGWSSSRGPYESGSGHSSGLGHRER (Peptide derived from human hornerin (HRNR 995-1056)) LGHGQHGSGSGQSPSPSRGRHGSGSGQSSSYGPYRSGSGWSSSRGPYESGSGHSSGLGHRER | – | – | 0.3 µg/mL | 2.35 µg/mL | –
GHKSSSGQSSGYTQHGSGSGHSSSYEQHGSRSGQSSRSEQHGSSSGSSSSYGQHGSGSRQSL (Peptide derived from human hornerin (HRNR 933-994)) GHKSSSGQSSGYTQHGSGSGHSSSYEQHGSRSGQSSRSEQHGSSSGSSSSYGQHGSGSRQSL | – | – | 0.3 µg/mL | 2.35 µg/mL | –
SQHKSSSGQSSGYSQHGSGSGHSSGYGQHGSRSGQSSRGDRHRSSSGSSSSYGQHGSGSRQSL (Peptide derived from human hornerin (HRNR 232-294)) SQHKSSSGQSSGYSQHGSGSGHSSGYGQHGSRSGQSSRGDRHRSSSGSSSSYGQHGSGSRQSL | – | – | 0.30 µg/mL | 2.35 µg/mL | –
